Data taken from PMC9508196 (Scientific Reports, 2022).
Non-standard residues stand in square brackets, D forms with d. Residues, ends and D or L forms follow the SMILES beside them. No end group written: not given here.

Assays:
[1] = system: mouse fibroblast (L929) cells; experiment: In vitro cytotoxicity assay (MTT); assay type: cell-based; conditions: 24 h
Protocol: The colorimetric 3-(4,5 dimethylthiazol-2-yl)-2,5-diphenyltetrazolium bromide (MTT; Invitrogen) dye reduction assay was used to determine the cytotoxicity of peptides on mouse fibroblast (L929) cells (NCTC clone 929) according to a modified MTT assay. L929 cells were cultured in Dulbecco’s Modified Eagle Medium (DMEM; Gibco) containing 10% fetal bovine serum (FBS; Gibco) and 100 U/ml penicillin–streptomycin in a fully humidified atmosphere of 95% air and 5% CO2 at 37 °C. The cells (10^5 cells/well) were seeded on 96-well plates and incubated with serially diluted peptide (0.98 to 250 μg/ml) for 24 h. At the end of incubation period, MTT solution (100 µl, 0.4 mg/ml) was added to each well and incubated for 4 h. The supernatants were removed and replaced by 100 µl of DMSO to dissolve the purple formazan crystals. Absorbance was measured using a MultiskanTM FC microplate reader at a wavelength of 570 nm. Cells without peptides served as negative controls. Cell viability (percentage) was calculated using the following equation: %Cell viability=OD570of treated sample-ODBlank/OD570of control-ODBlank×100%

[2] = system: A. baumannii D-10.1–2 (MDR); assay type: cell-based, Acinetobacter baumannii; conditions: clinical isolate D-10.1–2 (MDR), urine
Description: (§1) Ten strains of both Gram-positive and -negative bacteria, including Staphylococcus aureus ATCC 25,923, S. epidermidis ATCC 12,228, Bacillus cereus ATCC 11,778, Listeria monocytogenes 10403S, Salmonella typhimurium ATCC 13,311, Pseudomonas aeruginosa ATCC 27,853, Shigella sonnei ATCC 11,060, A. baumannii ATCC 19,606, Escherichia coli ATCC 25,922 and E. coli O157:H7, were used in this study. Eight clinical isolates of multidrug-resistant (MDR) and extensively drug-resistant (XDR) A. baumannii, isolated from human (blood, sputum, respiratory sample, sterile site sample and urine), were kindly provided by Asst. Prof. Dr. Sakawrat Kanthawong (Faculty of Medicine, Khon Kaen University, Thailand) (Table S1). All bacterial strains, excluding L. monocytogenes 10403S and E. coli, were cultured in tryptic soy broth (TSB). L. monocytogenes was grown in TSB supplemented with 0.6% yeast extract (TSB-YE), and E. coli was cultured in Luria broth (LB). All of bacteria were cultured at 37 °C with continuous shaking at 220 rpm.
(§2) Minimum inhibitory concentration (MIC) of peptides and antibiotics was assessed by a modified version of the broth microdilution method from the Clinical and Laboratory Standards Institute (CLSI) as previously described. In brief, mid-log phase growths of microbial strains were cultured in Müeller-Hinton broth (MHB) with an initial inoculum of 2–8 × 10^5 CFU/mL. Bacteria suspensions were incubated in sterile 96-well plates with test agents at desired concentrations. […] Minimum bactericidal concentration (MBC) determination was performed using a modified version of the colony count assay. In brief, fifty µl of all non-turbid wells from MIC experiments were spread on agar plates. The MBC value was defined as the lowest concentration of peptides with no colony growth on the plate. All assays were performed in triplicate.

[3] = system: A. baumannii D-10.1–1 (MDR); assay type: cell-based, Acinetobacter baumannii; conditions: clinical isolate D-10.1–1 (MDR), urine
Description: as §1, §2

A. baumannii ATCC 19,606 [4] = experiment: Peptide stability to proteolytic enzymes (MIC/MBC after pre-incubation); assay type: cell-based, Acinetobacter baumannii; conditions: for MBC, control / MIC, control: control: absence of human plasma and proteolytic enzymes, A. baumannii ATCC 19,606; for MBC in the presence of pepsin / MIC in the presence of pepsin: peptide pre-incubated with 1 mg/ml pepsin
Protocol: as §2
(§3) The MIC and MBC assays were performed after peptide was exposed to various conditions, including proteolytic enzymes, serum salts and human plasma. […] To determine peptide sensitivity to physiological salts, approximately 5 × 10^5 CFU/ml of A. baumannii ATCC 19,606 was mixed with the MHB containing different physiological salts at final concentration as follows: 150 mM NaCl, 4.5 mM KCl, 1 mM MgCl2, 6 µM NH4Cl, 8 µM ZnCl2, 4 µM FeCl3 and […]. After treatment, the MIC was evaluated as described in 2.4. To test the stability of peptides in human plasma, peptide was mixed with pure human plasma, and the mixture was incubated for 1 h at 37 °C. Then, the mixture was two-fold serially diluted with sterile MHB. The peptides at final concentrations of 0.98 to 250 µg/ml were incubated with an equal volume of bacterial suspension at 37 °C for 24 h. MIC values were determined as described in 2.4.

[5] = system: A. baumannii C-8.1–2 (MDR); experiment: microbe, parasite or virus in culture; assay type: cell-based, Acinetobacter baumannii; conditions: clinical isolate C-8.1–2 (MDR), sterile site
Description: as §1, §2

[6] = system: A. baumannii B-8.2–2 (XDR); experiment: microbe, parasite or virus in culture; assay type: cell-based, Acinetobacter baumannii; conditions: clinical isolate B-8.2–2 (XDR), respiratory tract
Description: as §1, §2

A. baumannii ATCC 19,606 [7] = experiment: microbe, parasite or virus in culture; assay type: cell-based, Acinetobacter baumannii; conditions: A. baumannii ATCC 19,606, triplicate; for MIC: broth microdilution (modified CLSI), MHB, 2–8 × 10^5 CFU/mL, 24 h, 37 °C; for MBC: colony count from non-turbid MIC wells
Description: as §1, §2

[8] = system: A. baumannii A-8.2–1 (XDR); experiment: microbe, parasite or virus in culture; assay type: cell-based, Acinetobacter baumannii; conditions: clinical isolate A-8.2–1 (XDR), blood
Description: as §1, §2

[9] = system: A. baumannii B-8.1–2 (MDR); experiment: microbe, parasite or virus in culture; assay type: cell-based, Acinetobacter baumannii; conditions: clinical isolate B-8.1–2 (MDR), respiratory tract
Description: as §1, §2

[10] = system: A. baumannii C-8.2–1 (XDR); experiment: microbe, parasite or virus in culture; assay type: cell-based, Acinetobacter baumannii; conditions: clinical isolate C-8.2–1 (XDR), sterile site
Description: as §1, §2

[11] = system: A. baumannii B-8.1–1 (MDR); experiment: microbe, parasite or virus in culture; assay type: cell-based, Acinetobacter baumannii; conditions: clinical isolate B-8.1–1 (MDR), respiratory tract
Description: as §1, §2

A. baumannii ATCC 19,606 [12] = experiment: Peptide stability in human plasma (MIC/MBC after pre-incubation); assay type: cell-based, Acinetobacter baumannii; conditions: peptide mixed with pure human plasma, 1 h, 37 °C, then two-fold diluted in MHB, bacteria 24 h
Protocol: as §2, §3

[13] = peptide pre-incubated with 1 mg/ml proteinase K, 37 °C, 1 h
[14] = peptide pre-incubated with 1 mg/ml trypsin, 37 °C, 1 h

| Compound | MBC [2] | MIC [2] | MBC [3] | MIC [3] | MBC, control (A. baumannii ATCC 19,606 [4]) | MIC, control (A. baumannii ATCC 19,606 [4]) | MBC in the presence of pepsin (A. baumannii ATCC 19,606 [4]; 37 °C, 1 h) | MIC in the presence of pepsin (A. baumannii ATCC 19,606 [4]; 37 °C, 1 h) | MBC [5] | MIC [5] | MBC [6] | MIC [6] | MIC (A. baumannii ATCC 19,606 [7]) | MBC (A. baumannii ATCC 19,606 [7]) | MBC [8] | MIC [8] | MBC [9] | MIC [9] | MBC [10] | MIC [10] | also measured |
| --- | --- | --- | --- | --- | --- | --- | --- | --- | --- | --- | --- | --- | --- | --- | --- | --- | --- | --- | --- | --- | --- |
| CC[C@@H](C)[C@@H](NC(=O)[C@@H](CCCCN)NC(=O)CNC(=O)[C@@H](C)NC(=O)[C@H](NC(=O)[C@@H](CCCCN)NC(=O)[C@@H](CCCCN)NC(=O)[C@H](NC(=O)[C@@H](CCCNC(=N)N)NC(=O)[C@@H](CCCNC(=N)N)NC(=O)[C@@H](Cc1ccccc1)NC(=O)[C@@H](CC(C)C)NC(=O)[C@H](N)CCCNC(=N)N)C(C)C)C(C)C)C(=O)N[C@H](C)C(=O)N[C@H](CCCCN)C(=O)N[C@H](CCCNC(=N)N)C(=O)N[C@@H](C(=O)N[C@H](Cc1c[nH]c2ccccc12)C(=O)N[C@H](CCCCN)C(N)=O)[C@H](C)CC [D-AP19] (H-[dR][dL][dF][dR][dR][dV][dK][dK][dV][dA]G[dK][dI][dA][dK][dR][dI][dW][dK]-NH2) | 7.81(7.81) µg/ml | 7.81(7.81) µg/ml | 7.81(7.81) µg/ml | 7.81(7.81) µg/ml | 7.81(7.81) µg/ml | 7.81(7.81) µg/ml | 15.63(15.63) µg/ml | 15.63(15.63) µg/ml | 3.91(3.91) µg/ml | 3.91(3.91) µg/ml | 7.81(7.81) µg/ml | 7.81(7.81) µg/ml | 7.81 (7.81) µg/ml | 7.81 (7.81) µg/ml | 7.81(7.81) µg/ml | 7.81(7.81) µg/ml | 15.63(15.63) µg/ml | 15.63(15.63) µg/ml | 7.81(7.81) µg/ml | 7.81(7.81) µg/ml | cell viability ([1]; 1 × and 2 × MIC): 100%; cell viability ([1]; peptide 62.5 µg/mL): more than 70%; MBC in the presence of proteinase K (A. baumannii ATCC 19,606 [4]; [13]): 7.81(7.81) µg/ml; MIC in the presence of proteinase K (A. baumannii ATCC 19,606 [4]; [13]): 7.81(7.81) µg/ml; MBC in the presence of trypsin (A. baumannii ATCC 19,606 [4]; [14]): 7.81(7.81) µg/ml; MIC in the presence of trypsin (A. baumannii ATCC 19,606 [4]; [14]): 7.81(7.81) µg/ml; MBC [11]: 7.81(7.81) µg/ml; MIC [11]: 7.81(7.81) µg/ml; MBC in the presence of human plasma (A. baumannii ATCC 19,606 [12]): 31.25(31.25) µg/ml; MIC in the presence of human plasma (A. baumannii ATCC 19,606 [12]): 31.25(31.25) µg/ml |
| RLFRRVKKVAGKIAKRIWK-NH2 [AP19] | 3.91(3.91) µg/ml | 3.91(3.91) µg/ml | 7.81(7.81) µg/ml | 7.81(7.81) µg/ml | 7.81(7.81) µg/ml | 7.81(7.81) µg/ml | 31.25(31.25) µg/ml | 31.25(31.25) µg/ml | 3.91(3.91) µg/ml | 3.91(3.91) µg/ml | 7.81(7.81) µg/ml | 7.81(7.81) µg/ml | 7.81 µg/mL | 7.81 (7.81) µg/ml | 3.91(3.91) µg/ml | 3.91(3.91) µg/ml | 7.81(7.81) µg/ml | 7.81(7.81) µg/ml | 7.81(7.81) µg/ml | 7.81(7.81) µg/ml | cell viability ([1]; all tested peptide concentrations (0.98 to 250 μg/ml)): 100%; MBC [11]: 7.81(7.81) µg/ml; MIC [11]: 7.81(7.81) µg/ml; MBC in the presence of human plasma (A. baumannii ATCC 19,606 [12]): 250(250) µg/ml; MIC in the presence of human plasma (A. baumannii ATCC 19,606 [12]): 250(250) µg/ml |
